Experimental data reported in patent US20240317777A1, “NOVEL MACROCYCLIC AMINOPYRAZOLE COMPOUNDS AS CDK2 INHIBITORS” (Accutar Biotechnology Inc., priority 2023, published 2024).
Read-outs that look alike come from different tables or passages of the source.

How the values were obtained:
CDK6-CYCLIN D3 = CDK6-CYCLIN D3 (Homo sapiens, UniProt Q00534); assay: CDK protein kinase inhibition by ADP-Glo assay, CDK6-CYCLIN D3; type: biochemical; settings: for IC50: ADP-Glo, 1000 μM ATP, read-out: CDK6-CYCLIND3, IC50; for CDK2 Fold Sensitivity, CDK6 / CDK2 Fold selectivity, CDK6: CDK2 versus CDK6; for CDK2 Fold Sensitivity, CDK6: Table 8
Sequence of CDK6-CYCLIN D3 (Q00534 whole entry): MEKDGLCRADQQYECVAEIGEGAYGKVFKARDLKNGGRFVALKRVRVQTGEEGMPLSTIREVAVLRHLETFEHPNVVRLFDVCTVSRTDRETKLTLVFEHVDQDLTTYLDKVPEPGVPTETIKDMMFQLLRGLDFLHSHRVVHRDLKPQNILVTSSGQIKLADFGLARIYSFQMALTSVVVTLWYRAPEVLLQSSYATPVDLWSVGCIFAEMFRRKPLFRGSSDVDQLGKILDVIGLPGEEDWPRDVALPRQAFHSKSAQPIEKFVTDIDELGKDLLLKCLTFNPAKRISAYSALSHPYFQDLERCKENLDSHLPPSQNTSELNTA
Sequence of CDK6-CYCLIN D3 (P30281 whole entry partner): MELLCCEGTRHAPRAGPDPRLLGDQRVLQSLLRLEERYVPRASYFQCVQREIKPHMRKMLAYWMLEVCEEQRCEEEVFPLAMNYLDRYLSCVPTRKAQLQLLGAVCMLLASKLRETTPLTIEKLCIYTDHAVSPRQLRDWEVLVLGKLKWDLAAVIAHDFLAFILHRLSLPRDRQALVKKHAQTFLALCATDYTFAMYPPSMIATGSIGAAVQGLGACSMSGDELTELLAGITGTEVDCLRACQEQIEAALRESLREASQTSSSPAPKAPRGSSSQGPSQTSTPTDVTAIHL
Method: (§1) CDK Protein Kinase Inhibition by ADP-Glo Assay
(§2) This ADP-Glo assay measures ADP formed from a kinase reaction and indirectly quantifies the phosphorylation of peptide substrates by the CDK/cyclin protein complexes. The typical assays were carried out in Nanosyn by combining kinase/cyclin complexes, substrates, compounds, and cofactors (ATP and Mg2+) in a well of a 384-well microtiter plate (Corning 3824) and incubating at 22° C. (Table 1). At the end of the incubation, the reaction is quenched, and conversion is detected by luminescence using the Promega ADP-Glo™ Kinase Assay kit (catalog #V9102).
(§3) Final assay buffer mixture contains: • 100 mM HEPES, pH 7.5 • 0.1% BSA • 0.01% Triton X-100 • 1 mM DTT • 5 mM MgCl2 • 10 μM Sodium Orthovanadate • 100 μM Beta-Glycerophosphate • 1000 μM Ultra Pure ATP (provided in the Promega ADP-Glo™ Kinase Assay kit) • 1% DMSO (from compound)
(§4) Upon completion, 5 μL of the ADP Glo reagent was added to each well and the plate was further incubated at room temperature for 45 minutes. 10 uL of the Kinase Detection Reagent was subsequently added to each well. After 10 minutes of incubation, the plate was read and analyzed on the BioTek Synergy microplate reader using BioTek Gen5 software.

CDK4-CYCLIN D1 = CDK4-CYCLIN D1 (Homo sapiens, UniProt P11802); assay: CDK protein kinase inhibition by ADP-Glo assay, CDK4-CYCLIN D1; type: biochemical; settings: for IC50: ADP-Glo, 1000 μM ATP, read-out: CDK4-CYCLIND1, IC50; for CDK2 Fold Sensitivity, CDK4 / CDK2 Fold selectivity, CDK4: CDK2 versus CDK4; for CDK2 Fold Sensitivity, CDK4: Table 8
Sequence of CDK4-CYCLIN D1 (P11802 whole entry): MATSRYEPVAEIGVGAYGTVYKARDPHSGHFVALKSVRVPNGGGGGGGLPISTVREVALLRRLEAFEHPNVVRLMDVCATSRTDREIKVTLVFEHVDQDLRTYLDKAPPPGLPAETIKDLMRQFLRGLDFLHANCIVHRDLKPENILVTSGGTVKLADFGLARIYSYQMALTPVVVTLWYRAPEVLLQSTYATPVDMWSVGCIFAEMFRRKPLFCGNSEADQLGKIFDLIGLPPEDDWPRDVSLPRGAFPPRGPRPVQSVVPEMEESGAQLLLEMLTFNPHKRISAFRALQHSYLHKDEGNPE
Sequence of CDK4-CYCLIN D1 (P24385 whole entry partner): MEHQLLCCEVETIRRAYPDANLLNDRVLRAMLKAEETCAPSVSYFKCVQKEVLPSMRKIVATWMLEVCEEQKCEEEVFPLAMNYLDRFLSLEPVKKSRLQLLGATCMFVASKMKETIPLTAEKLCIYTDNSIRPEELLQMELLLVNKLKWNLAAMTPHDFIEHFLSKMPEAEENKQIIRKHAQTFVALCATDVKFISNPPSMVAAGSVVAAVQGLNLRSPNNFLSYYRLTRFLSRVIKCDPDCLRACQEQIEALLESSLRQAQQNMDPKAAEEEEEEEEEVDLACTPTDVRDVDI
Method: as §1, §2, §3, §4

CCNE1-normal SKOV3 cells = assay: Cell growth inhibition of CCNE1-normal SKOV3 cells (CellTiter-Glo); type: cell-based; settings: Homo sapiens, SK-OV-3, 144 h, 6 days
Outline: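 Growth was measured by CellTiter-Glo luminescence after 6 days' compound exposure at 37 °C. Cells were plated one day before dosing at 1000 per well in medium with 10% FBS, and compounds were diluted from DMSO stocks.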

[1] = system: Phospho-Rb (Ser807/811) in OVCAR3 cells; assay: Phospho-Rb expression inhibition in OVCAR3 cells quantified by In Cell Western; type: cell-based; settings: Homo sapiens, OVCAR-3, 24 hours, read-out: OVCAR-3 pRb IC50
Outline: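 In-cell western: after 24 h compound exposure at 37° C, fixed OVCAR3 cells co-stained for pRb Ser807/811 (800 nm channel) and total Rb (680 nm channel), imaged by LI-COR Odyssey.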

CDK9-CYCLIN T1 = CDK9-CYCLIN T1 (Homo sapiens, UniProt P50750); assay: CDK protein kinase inhibition by ADP-Glo assay, CDK9-CYCLIN T1; type: biochemical; settings: for IC50: ADP-Glo, 1000 μM ATP, read-out: CDK9-CYCLINT1, IC50; for CDK2 Fold Sensitivity, CDK9 / CDK2 Fold selectivity, CDK9: CDK2 versus CDK9; for CDK2 Fold Sensitivity, CDK9: Table 8
Sequence of CDK9-CYCLIN T1 (P50750 whole entry): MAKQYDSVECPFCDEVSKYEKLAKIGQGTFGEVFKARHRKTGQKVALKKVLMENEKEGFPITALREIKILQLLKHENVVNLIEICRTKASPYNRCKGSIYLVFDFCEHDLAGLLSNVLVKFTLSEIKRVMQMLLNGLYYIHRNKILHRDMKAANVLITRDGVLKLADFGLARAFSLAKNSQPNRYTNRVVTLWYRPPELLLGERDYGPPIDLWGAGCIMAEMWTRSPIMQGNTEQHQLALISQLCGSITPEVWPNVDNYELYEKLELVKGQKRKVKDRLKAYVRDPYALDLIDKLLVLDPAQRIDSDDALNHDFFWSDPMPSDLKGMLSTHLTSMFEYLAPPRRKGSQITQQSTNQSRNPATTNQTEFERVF
Sequence of CDK9-CYCLIN T1 (O60563 whole entry partner): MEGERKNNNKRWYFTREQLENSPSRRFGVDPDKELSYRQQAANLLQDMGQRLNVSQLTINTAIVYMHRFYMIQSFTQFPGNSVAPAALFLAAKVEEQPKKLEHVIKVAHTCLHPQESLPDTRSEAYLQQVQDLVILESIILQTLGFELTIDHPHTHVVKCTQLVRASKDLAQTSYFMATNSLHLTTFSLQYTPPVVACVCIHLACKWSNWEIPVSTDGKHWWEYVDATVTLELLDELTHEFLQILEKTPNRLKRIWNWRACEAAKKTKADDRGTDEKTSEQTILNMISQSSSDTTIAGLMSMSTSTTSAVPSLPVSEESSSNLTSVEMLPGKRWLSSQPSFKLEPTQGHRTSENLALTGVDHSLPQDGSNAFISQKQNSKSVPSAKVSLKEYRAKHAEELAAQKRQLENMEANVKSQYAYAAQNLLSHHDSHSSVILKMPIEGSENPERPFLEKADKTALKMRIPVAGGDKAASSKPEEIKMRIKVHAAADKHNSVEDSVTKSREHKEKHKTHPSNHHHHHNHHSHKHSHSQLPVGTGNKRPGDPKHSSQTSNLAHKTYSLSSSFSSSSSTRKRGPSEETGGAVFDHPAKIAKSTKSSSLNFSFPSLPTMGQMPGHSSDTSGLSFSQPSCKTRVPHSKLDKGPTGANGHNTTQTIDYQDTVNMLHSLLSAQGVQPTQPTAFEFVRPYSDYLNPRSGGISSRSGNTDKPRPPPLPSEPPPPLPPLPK
Method: as §1, §2, §3, §4

CDK2-CYCLIN E1 = CDK2-CYCLIN E1 (Homo sapiens, UniProt P24941); assay: CDK protein kinase inhibition by ADP-Glo assay, CDK2-CYCLIN E1; type: biochemical; settings: ADP-Glo, 1000 μM ATP, read-out: CDK2-CYCLINE, IC50
Method: as §1, §2, §3, §4

CDK1-CYCLIN B = CDK1-CYCLIN B (Homo sapiens, UniProt P06493); assay: CDK protein kinase inhibition by ADP-Glo assay, CDK1-CYCLIN B; type: biochemical; settings: for IC50: ADP-Glo, 1000 μM ATP, read-out: CDK1-CYCLINB, IC50; for CDK2 fold selectivity over CDK1 / CDK2 Fold selectivity, CDK1: CDK2 versus CDK1; for CDK2 fold selectivity over CDK1: Table 8
Sequence of CDK1-CYCLIN B (P06493 whole entry): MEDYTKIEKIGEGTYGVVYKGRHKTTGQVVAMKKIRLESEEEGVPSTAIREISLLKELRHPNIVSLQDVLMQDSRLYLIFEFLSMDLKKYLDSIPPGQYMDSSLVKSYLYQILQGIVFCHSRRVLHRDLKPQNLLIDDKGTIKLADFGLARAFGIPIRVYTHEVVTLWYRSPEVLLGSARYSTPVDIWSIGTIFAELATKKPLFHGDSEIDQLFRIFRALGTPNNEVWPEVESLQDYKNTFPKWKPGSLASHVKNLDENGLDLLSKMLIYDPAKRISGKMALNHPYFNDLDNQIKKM
Sequence of CDK1-CYCLIN B (P14635 whole entry partner): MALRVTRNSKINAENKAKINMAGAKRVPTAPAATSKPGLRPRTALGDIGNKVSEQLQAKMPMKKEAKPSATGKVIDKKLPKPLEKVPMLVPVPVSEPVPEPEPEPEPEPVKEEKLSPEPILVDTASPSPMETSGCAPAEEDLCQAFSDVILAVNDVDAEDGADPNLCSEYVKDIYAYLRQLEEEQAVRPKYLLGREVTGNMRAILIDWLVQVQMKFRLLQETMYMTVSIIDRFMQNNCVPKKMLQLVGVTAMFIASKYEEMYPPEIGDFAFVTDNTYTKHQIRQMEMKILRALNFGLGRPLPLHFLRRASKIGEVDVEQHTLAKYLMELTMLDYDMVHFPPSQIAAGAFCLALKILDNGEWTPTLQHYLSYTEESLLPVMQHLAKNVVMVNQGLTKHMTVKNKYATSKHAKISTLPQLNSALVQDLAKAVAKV
Method: as §1, §2, §3, §4

[2] = system: CCNE1-amplified OVCAR3 cells; assay: Cell growth inhibition of CCNE1-amplified OVCAR3 cells (CellTiter-Glo); type: cell-based; settings: Homo sapiens, OVCAR-3, 144 h, 6 days
Outline: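 Growth read-out was CellTiter-Glo luminescence, taken after 10 min at room temperature at the end of a 6-day compound exposure at 37 °C. Compounds were diluted from DMSO stocks across various concentrations.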

| IC50 (CDK6-CYCLIN D3; Table 7) [nM] | CDK2 Fold Sensitivity, CDK6 (CDK6-CYCLIN D3) | IC50 (CDK4-CYCLIN D1; Table 7) [nM] | CDK2 Fold Sensitivity, CDK4 (CDK4-CYCLIN D1) | IC50 [1] [nM] | IC50 (CDK9-CYCLIN T1; Table 7) [nM] | CDK2 Fold Sensitivity, CDK9 (CDK9-CYCLIN T1) | IC50 (CDK2-CYCLIN E1; Table 7) [nM] | IC50 (CDK1-CYCLIN B; Table 7) [nM] | CDK2 fold selectivity over CDK1 (CDK1-CYCLIN B) | IC50 [2] [nM] | Compound | IC50 (CCNE1-normal SKOV3 cells) [nM] | other results |
| --- | --- | --- | --- | --- | --- | --- | --- | --- | --- | --- | --- | --- | --- |
| > 500 | B (B, >100 and ≤500) | > 500 | B (B, >100 and ≤500) | 10 to 50 | > 500 | B (B, >100 and ≤500) | ≤ 10 | 50 to 100 | E (E, <20) | 10 to 50 | O=C1NCCCCOc2cc(cc(C(F)F)n2)Nc2cc([nH]n2)[C@H]2CC[C@H](C2)O1 [Compound 16, (1^1S,1^3R,Z)-46-(difluoromethyl)-2^1H-5,12-dioxa-3,10-diaza-4(4,2)-pyridina-2(5,3)-pyrazola-1(1,3)-cyclopentanacyclododecaphan-11-one] | > 1250 | – |
| 50 to 100 | B (B, >100 and ≤500) | 100 to 500 | B (B, >100 and ≤500) | 2 to 10 | 50 to 100 | C (C, >50 and ≤100) | ≤ 10 | ≤ 10 | E (E, <20) | 2 to 10 | O=C1NCCCCCc2cc(cc(C(F)F)n2)Nc2cc([nH]n2)[C@H]2CC[C@H](C2)O1 [Compound 17, (1^1S,1^3R,Z)-4^6-(difluoromethyl)-2^1H-12-oxa-3,10-diaza-4(4,2)-pyridina-2(3,5)-pyrazola-1(1,3)-cyclopentanacyclododecaphan-11-one] | 250 to 1250 | – |
| – | – | – | – | 2 to 10 | – | – | – | – | – | 10 to 50 | O=C1NC23CC(COc4cc(cc(C(F)F)n4)Nc4cc([nH]n4)[C@H]4CC[C@H](C4)O1)(C2)C3 [Compound 19, (1^1S,1^3R,Z)-46-(difluoromethyl)-2^1H-5,10-dioxa-3,8-diaza-4(4,2)-pyridina-2(3,5)-pyrazola-7(1,3)-bicyclo[1.1.1]pentana-1(1,3)-cyclopentanacyclodecaphan-9-one] | > 1250 | IC50 (CDK6-CYCLIN D3; Table 11): > 500 nM; CDK2 Fold selectivity, CDK6 (CDK6-CYCLIN D3; Table 12): B (B, >100 and ≤500); IC50 (CDK4-CYCLIN D1; Table 11): > 500 nM; CDK2 Fold selectivity, CDK4 (CDK4-CYCLIN D1; Table 12): A (A, ≥500); IC50 (CDK9-CYCLIN T1; Table 11): > 500 nM; CDK2 Fold selectivity, CDK9 (CDK9-CYCLIN T1; Table 12): A (A, ≥500); IC50 (CDK2-CYCLIN E1; Table 11): ≤ 10 nM; IC50 (CDK1-CYCLIN B; Table 11): 50 to 100 nM; CDK2 Fold selectivity, CDK1 (CDK1-CYCLIN B; Table 12): D (D, >20 and ≤50) |
| – | – | – | – | ≤ 2 | – | – | – | – | – | 2 to 10 | O=C1NCCCCC(F)(F)c2cc(ccn2)Nc2cc([nH]n2)[C@H]2CC[C@H](C2)O1 [Compound 64, (1^1S,1^3R,Z)-5,5-difluoro-2^1H-12-oxa-3,10-diaza-4(4,2)-pyridina-2(3,5)-pyrazola-1(1,3)-cyclopentanacyclododecaphan-11-one] | 50 to 250 | IC50 (CDK6-CYCLIN D3; Table 19): 10 to 50 nM; CDK2 Fold selectivity, CDK6 (CDK6-CYCLIN D3; Table 20): D (D, >20 and ≤50); IC50 (CDK4-CYCLIN D1; Table 19): 10 to 50 nM; CDK2 Fold selectivity, CDK4 (CDK4-CYCLIN D1; Table 20): D (D, >20 and ≤50); IC50 (CDK9-CYCLIN T1; Table 19): 10 to 50 nM; CDK2 Fold selectivity, CDK9 (CDK9-CYCLIN T1; Table 20): E (E, <20); IC50 (CDK2-CYCLIN E1; Table 19): ≤ 10 nM; IC50 (CDK1-CYCLIN B; Table 19): ≤ 10 nM; CDK2 Fold selectivity, CDK1 (CDK1-CYCLIN B; Table 20): E (E, <20) |
| – | – | – | – | ≤ 2 | – | – | – | – | – | 2 to 10 | O=C1NC23CC(CCCc4cc(ccn4)Nc4cc(n[nH]4)[C@H]4CC[C@H](C4)O1)(C2)C3 [Compound 96, (1^1S,1^3R,Z)-2^1H-11-oxa-3,9-diaza-4(4,2)-pyridina-2(3,5)-pyrazola-8(1,3)-bicyclo[1.1.1]pentana-1(1,3)-cyclopentanacycloundecaphan-10-one] | 50 to 250 | IC50 (CDK6-CYCLIN D3; Table 13): 10 to 50 nM; CDK2 Fold selectivity, CDK6 (CDK6-CYCLIN D3; Table 14): E (E, <20); IC50 (CDK4-CYCLIN D1; Table 13): 50 to 100 nM; CDK2 Fold selectivity, CDK4 (CDK4-CYCLIN D1; Table 14): D (D, >20 and ≤50); IC50 (CDK9-CYCLIN T1; Table 13): ≤ 10 nM; CDK2 Fold selectivity, CDK9 (CDK9-CYCLIN T1; Table 14): E (E, <20); IC50 (CDK2-CYCLIN E1; Table 13): ≤ 10 nM; IC50 (CDK1-CYCLIN B; Table 13): ≤ 10 nM; CDK2 Fold selectivity, CDK1 (CDK1-CYCLIN B; Table 14): E (E, <20) |
| – | – | – | – | 2 to 10 | – | – | – | – | – | 10 to 50 | C[C@@H]1CC23CC(C2)(C3)NC(=O)O[C@@H]2CC[C@@H](C2)c2cc([nH]n2)Nc2ccnc(c2)O1 [Compound 100, (1^1S,1^3R,6R,Z)-6-methyl-2^1H-5,11-dioxa-3,9-diaza-4(4,2)-pyridina-2(3,5)-pyrazola-8(1,3)-bicyclo[1.1.1]pentana-1(1,3)-cyclopentanacycloundecaphan-10-one] | 50 to 250 | IC50 (CDK6-CYCLIN D3; Table 17): 100 to 500 nM; CDK2 Fold selectivity, CDK6 (CDK6-CYCLIN D3; Table 18): C (C, >50 and ≤100); IC50 (CDK4-CYCLIN D1; Table 17): 100 to 500 nM; CDK2 Fold selectivity, CDK4 (CDK4-CYCLIN D1; Table 18): C (C, >50 and ≤100); IC50 (CDK9-CYCLIN T1; Table 17): 10 to 50 nM; CDK2 Fold selectivity, CDK9 (CDK9-CYCLIN T1; Table 18): D (D, >20 and ≤50); IC50 (CDK2-CYCLIN E1; Table 17): ≤ 10 nM; IC50 (CDK1-CYCLIN B; Table 17): 10 to 50 nM; CDK2 Fold selectivity, CDK1 (CDK1-CYCLIN B; Table 18): E (E, <20) |
| – | – | – | – | ≤ 2 | – | – | – | – | – | 2 to 10 | C[C@H]1CC23CC(C2)(C3)NC(=O)O[C@@H]2CC[C@@H](C2)c2cc([nH]n2)Nc2ccnc(c2)O1 [Compound 102, (1^1S,1^3R,6S,Z)-6-methyl-2^1H-5,11-dioxa-3,9-diaza-4(4,2)-pyridina-2(3,5)-pyrazola-8(1,3)-bicyclo[1.1.1]pentana-1(1,3)-cyclopentanacycloundecaphan-10-one] | 50 to 250 | IC50 (CDK6-CYCLIN D3; Table 17): 100 to 500 nM; CDK2 Fold selectivity, CDK6 (CDK6-CYCLIN D3; Table 18): C (C, >50 and ≤100); IC50 (CDK4-CYCLIN D1; Table 17): 100 to 500 nM; CDK2 Fold selectivity, CDK4 (CDK4-CYCLIN D1; Table 18): C (C, >50 and ≤100); IC50 (CDK9-CYCLIN T1; Table 17): 10 to 50 nM; CDK2 Fold selectivity, CDK9 (CDK9-CYCLIN T1; Table 18): E (E, <20); IC50 (CDK2-CYCLIN E1; Table 17): ≤ 10 nM; IC50 (CDK1-CYCLIN B; Table 17): ≤ 10 nM; CDK2 Fold selectivity, CDK1 (CDK1-CYCLIN B; Table 18): E (E, <20) |
| 100 to 500 | C (C, >50 and ≤100) | 100 to 500 | D (D, >20 and ≤50) | 10 to 50 | > 500 | B (B, >100 and ≤500) | ≤ 10 | 100 to 500 | C (C, >50 and ≤100) | 50 to 250 | O=C1NCCCCOc2cccc(c2)Nc2cc([nH]n2)[C@H]2CC[C@H](C2)O1 [Compound 105, (1^1S,1^3R,Z)-2^1H-5,12-dioxa-3,10-diaza-2(5,3)-pyrazola-4(1,3)-benzena-1(1,3)-cyclopentanacyclododecaphan-11-one] | > 1250 | – |
